Here are results for 16 compounds from US10954221B2, “GLP-1R agonists and uses thereof” (QILU REGOR THERAPEUTICS INC., priority 2019, dated 2021).

In assay [1] the target is T1, GLP1R (Homo sapiens, UniProt P43220). Nature of the assay: cAMP assay in CHO cells stably expressing hGLP-1R. The class given is cell-based. More on the design: expressed in transfected cells; host or cells: CHO cells stably transfected. Particulars: CHO cells stably expressing hGLP-1R (Table 2), read-out: CHO cAMP stable EC50. As to the method:
GLP-1R-mediated agonist activity was determined with a cell-based functional assay utilizing an HTRF (Homogeneous Time-Resolved Fluorescence) cAMP detection kit (cAMP Dynamic 2 Assay Kit; CisBio cat #62AM4PEC) that measures cAMP levels in the cell. The method is a competitive immunoassay between native cAMP produced by the cells and exogenous cAMP labeled with the dye d2. The tracer binding is visualized by a mAb anti-cAMP labeled with Cryptate. The specific signal (i.e., energy transfer) is inversely proportional to the concentration of cAMP in either standard or experimental sample.
Following the 30 minute incubation, 5 μL of labeled d2 cAMP and 5 μL of anti-cAMP antibody (both diluted 1:20 in cell lysis buffer; as described in the manufacturer's assay protocol) were added to each well of the assay plate. […] Raw data were converted to nM cAMP by interpolation from a cAMP standard curve (as described in the manufacturer's assay protocol) and the percent effect was determined relative to a saturating concentration of the full agonist GLP-17-37 (10 nM) included on each plate. EC50 determinations were made from agonist dose-response curves analyzed with a curve fitting program using a 4-parameter logistic dose response equation. […]
Target sequence in this assay (P43220 24-463): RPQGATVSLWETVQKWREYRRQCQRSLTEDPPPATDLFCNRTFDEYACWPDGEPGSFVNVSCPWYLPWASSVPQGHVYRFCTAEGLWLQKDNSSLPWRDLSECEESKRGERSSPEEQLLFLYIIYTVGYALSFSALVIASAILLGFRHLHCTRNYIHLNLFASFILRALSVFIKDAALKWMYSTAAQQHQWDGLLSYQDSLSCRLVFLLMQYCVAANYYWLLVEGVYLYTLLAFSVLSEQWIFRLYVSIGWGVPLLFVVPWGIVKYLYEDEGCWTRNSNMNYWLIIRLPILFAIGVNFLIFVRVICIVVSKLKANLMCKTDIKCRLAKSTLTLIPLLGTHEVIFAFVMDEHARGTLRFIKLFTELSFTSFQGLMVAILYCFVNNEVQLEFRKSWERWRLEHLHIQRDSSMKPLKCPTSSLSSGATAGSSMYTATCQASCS

In assay [2] the target is T1, GLP1R. Description: GLP1R cAMP assay (HTRF), HEK293/GLP-1R/CRE/Luc, Clone 4. (cAMP levels reflect the balance of adenylyl cyclase and phosphodiesterase activity.)
Target sequence in this assay (P43220 24-463): as above
Experimental: The human GLP-1R coding sequence (NCBI Reference Sequence NM_002062) was subcloned into pcDNA3.1+/Hygro vector (Invitrogen) and transfected into HEK293/CRE/Luc parental cell line. A cell line stably expressing the receptor was isolated.
Varying concentrations of each compound to be tested (in DMSO) were diluted in DMSO to obtain 200× compound working solution first and then 50 nl compounds were added to a white 384-well assay plate (Greiner 784075) with ECHO. The final DMSO concentration was 0.5%.
Cells were removed from cryopreservation, re-suspended in 5 mL of Dulbecco's Phosphate Buffered Saline (DPBS-Sigma Cat #D8537) and centrifuged at 900×g for 5 min at 22° C. The cell pellet was then re-suspended in 1 mL of assay buffer [DPBS with 500 μM IBMX (Sigma #15879) and 0.1% BSA (Sigma #A1933). IBMX and BSA were freshly added on the day of assay]. A 10 μL sample of the cell suspension was counted on an Invitrogen Countess II to determine cell viability and cell count per mL. The remaining cell suspension was then adjusted with assay buffer to deliver 1000 viable cells per well using a Matrix Combi Multidrop reagent dispenser. 10 μL cell suspensions were added to each well
of the assay plate which already contains compound. The plate was sealed and incubated at 37° C. with 5% CO2 for 30 minutes.
Following the 30 minute incubation, 5 μL of labeled d2 cAMP and 5 μL of anti-cAMP antibody (both diluted 1:20 in cell lysis buffer; as described in the manufacturer's assay protocol) were added to each well of the assay plate. The plates were then incubated at room temperature and after 60 minutes, changes in the HTRF signal were read with an Envision multi-label plate reader using excitation of 330 nm and emissions of 615 and 665 nm. Raw data were converted to nM cAMP by interpolation from a cAMP standard curve (as described in the manufacturer's assay protocol) and the percent effect was determined relative to a saturating concentration of the full agonist GLP-17-37 (10 nM) included on each plate. EC50 determinations were made from agonist dose-response curves analyzed with a curve fitting program using a 4-parameter logistic dose response equation.
Assay [3] addresses T1, GLP1R. Description: β-Arrestin-mediated GLP1R internalization assay (PathHunter U2OS cells). The class given is cell-based. The arrangement: host or cells: PathHunter engineered U2OS cells. Conditions: averaged Bmax where applicable, Percentage of Control GLP-1 (7-37), top 10 μM, 180 min. From the text:
A similar assay can also be used to assess the extent of signal attenuation due to GLP-1R internalization (the Internalization Assay). In this assay, activated GLP1R Internalization cells were engineered to co-express an untagged GLP1R, Enzyme Acceptor (EA) tagged β-Arrestin, and a ProLink™ (PK) tag localized to the endosomes. Activation of the GLP1R induces β-Arrestin recruitment, which leads to internalization of the Receptor/Arrestin-EA complex in PK-tagged endosomes. This forces complementation of the two β-galactosidase enzyme fragments (EA and PK) to form a functional enzyme that hydrolyzes substrate to generate a chemiluminescent signal.
Frozen cells were quickly thawed and 10 mL of cell plating medium (provided by the kit) was added to thawed cells. Cells were stored in a 37° C. incubator and kept for approximately 48 hours until ready for the assay.
Reference and test compounds were dissolved in 100% DMSO. […] 5 μL of this solution was added to 20 μL cell medium in assay plate for a final top concentration of 10 μM. Plates were incubated at 37° C. for 180 min.
Following 180 min incubation, detection reagents were made up by combining 1 part Galacton Star Substrate with 5 parts Emerald II™ Solution, and 19 parts of PathHunter Cell Assay Buffer, respectively. 12.5 μL detection reagent was added to each well. The plates were then incubated at room temperature for 60 min. Plates were then read on Envision for 0.1 sec/well.
EC50 determinations were made from agonist dose-response curves analyzed with a curve fitting program using a 4-parameter logistic dose response equation.
Target sequence in this assay (P43220 24-463): as above
Target sequence in this assay (P32121 whole entry partner): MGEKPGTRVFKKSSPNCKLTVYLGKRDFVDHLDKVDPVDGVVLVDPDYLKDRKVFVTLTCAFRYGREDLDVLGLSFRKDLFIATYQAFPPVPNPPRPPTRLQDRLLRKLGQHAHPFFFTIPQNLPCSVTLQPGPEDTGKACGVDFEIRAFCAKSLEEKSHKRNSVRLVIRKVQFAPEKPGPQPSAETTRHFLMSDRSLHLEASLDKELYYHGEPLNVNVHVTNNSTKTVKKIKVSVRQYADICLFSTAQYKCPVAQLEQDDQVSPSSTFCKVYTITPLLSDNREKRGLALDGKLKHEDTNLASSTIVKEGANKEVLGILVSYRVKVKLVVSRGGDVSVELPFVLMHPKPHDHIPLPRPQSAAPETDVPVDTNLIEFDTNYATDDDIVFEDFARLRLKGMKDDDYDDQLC

In assay [4] the target is T1, GLP1R. More on the design: Emax: dose or concentration left out as unconfirmed. Particulars: for Emax: CHO-K1, […], read-out: β-arrestin recruitment Bmax (%). On the technique in general: Activated receptors often draw arrestin, which recruitment assays turn into a signal.
Target sequence in this assay (P43220 24-463): as the sequence (P43220 24-463) above
Target sequence in this assay (P32121 whole entry partner): as the sequence (P32121 whole entry partner) above
Experimental: Frozen cells were quickly thawed and 10 mL of cell plating medium (provided by the kit) was added to thawed cells. Cells were stored in a 37° C. incubator under 5% CO2 and kept for approximately 48 hours until ready to run the assay.
Reference and test compounds were dissolved in 100% DMSO. […] 5 μL of this solution was added to 20 μL cell medium in assay plate for a final top concentration of 10 μM. Plates were then incubated at 37° C. under 5% CO2 for 90 min.
Following 90 min incubation, detection reagents were made up by combining 1 part Galacton Star Substrate with 5 parts Emerald II™ Solution, and 19 parts of PathHunter Cell Assay Buffer, respectively. 12.5 μl detection reagent was added to each well. The plates were then incubated at room temperature in dark for 60 min. Plates were then read on Envision for 0.1 sec/well.
Cells were plated at a density of 1000 or 2000 cells/20 μL/well. Frozen cells were quickly thawed and added to 10 mL of cell plating medium. Cells were stored in a 37 degree incubator under 5% CO2 and left for approximately 48 hours until ready to run the assay
Prepare 10× concentration of an agonist in serum free DMEM, and add all solutions into the compound plate. 2.5 μL of this solution was added to 20 μL cell medium in assay plate for a final top concentration of 10 μM. Plates were incubated at 37° C. under 5% CO2 for 30 min. An additional 2.5 μL of Buffer was added to the entire plate for agonist mode and incubated at 37° C. for another 90 min.
Following 90 min incubation, detection reagents were made up as described. 12.5 μL was added to all wells. The plates were then incubated at room temperature in dark for 60 min. Plates were then read on Envision for 0.1 sec/well.
Data analysis: GraphPad Prism 6 was used for establishment of progression curve. EC50s or IC50s were determined by 4-parameter logistic dose response equation.

As for `N#Cc1ccc(COc2cccc(-c3ccn(Cc4nc5ccc(C(=O)O)c(F)c5n4C[C@@H]4CCO4)c(=O)c3)n2)c(F)c1` [Compound 322, (S)-2-((6-((4-cyano-2-fluorobenzyl)oxy)-2′-oxo-[2,4′-bipyridin]-1′(2′H)-yl)methyl)-7-fluoro-1-(oxetan-2-ylmethyl)-1H-benzo[d]imidazole-6-carboxylic acid], the EC50 in assay [1] was 15 to 150 nM; in assay [2] it was < 15 nM.

Regarding `O=C(O)c1ccc2nc(Cc3ccc(-c4cccc(OCc5ccc(Cl)cc5F)n4)cc3F)n(C[C@@H]3CCO3)c2n1` [Compound 287, (S)-2-(4-(6-((4-chloro-2-fluorobenzyl)oxy)pyridin-2-yl)-2-fluorobenzyl)-3-(oxetan-2-ylmethyl)-3H-imidazo[4,5-b]pyridine-5-carboxylic acid], the EC50 in assay [1] lay within 15 to 150 nM.

For `O=C(O)c1ccc2nc(Cc3ccc(-c4ncc(F)c(OCc5ccc(Cl)cc5F)n4)c(F)c3)n(C[C@@H]3CCO3)c2c1` [Compound 81, (S)-2-(4-(4-(4-chloro-2-fluorobenzyloxy)-5-fluoropyrimidin-2-yl)-3-fluorobenzyl)-1-(oxetan-2-ylmethyl)-1H-benzo[d]imidazole-6-carboxylic acid], the “β-arrestin internalization Bmax (POC)” value in assay [3] is 30.6 POC. The EC50 in assay [2] is < 15 nM. Further, the Emax in assay [4] is 37.2%.

Consider `O=C(O)c1ccc2nc(Cc3ccc(-c4cccc(OCc5ccc(Cl)cc5F)n4)cc3F)n(C[C@@H]3CCO3)c2n1` [Compound 281, 2-[[4-[6-[(4-chloro-2-fluoro-phenyl)methoxy]-2-pyridyl]-2-fluoro-phenyl]methyl]-3-[[(2S)-oxetan-2-yl]methyl]imidazo[4,5-b]pyridine-5-carboxylic acid], for which the “β-arrestin internalization Bmax (POC)” value in assay [3] is listed as 36.5 POC. Moreover, the EC50 in assay [2] was < 15 nM. For the same compound, the Emax in assay [4] is 48.5 ± 6.64%.

For `O=C(O)c1ccc2nc(Cc3ccc(-c4cccc(OCc5ccc(Cl)cc5F)n4)c(F)c3)n(C[C@@H]3CCO3)c2c1F` [Compound 308, (S)-2-(4-(6-((4-chloro-2-fluorobenzyl)oxy)pyridin-2-yl)-3-fluorobenzyl)-7-fluoro-1-(oxetan-2-ylmethyl)-1H-benzo[d]imidazole-6-carboxylic acid], the “β-arrestin internalization Bmax (POC)” value in assay [3] was found to be 48.8 ± 6.11 POC. The half-maximal effective concentration (EC50) in assay [2] is < 15 nM. In addition, the Emax in assay [4] turned out to be 62.8 ± 4.09%.

Turning to `O=C(O)c1ccc2nc(Cc3ccc(-c4ccc(F)c(OCc5ccc(F)cc5F)n4)cc3F)n(C[C@@H]3CCO3)c2n1` [Compound 277, (S)-2-(4-(6-(2,4-difluorobenzyloxy)-5-fluoropyridin-2-yl)-2-fluorobenzyl)-3-(oxetan-2-ylmethyl)-3H-imidazo[4,5-b]pyridine-5-carboxylic acid], the “β-arrestin internalization Bmax (POC)” value in assay [3] is 23.0 POC. Further, the EC50 in assay [2] was < 15 nM. In addition, in assay [4], the Emax worked out at 39.3 ± 4.96%.

For `O=C(O)c1ccc2nc(Cc3ccc(-c4ccc(F)c(OCc5ccc(Cl)cc5F)n4)cc3F)n(C[C@@H]3CCO3)c2c1` [Compound 88, (S)-2-(4-(6-(4-chloro-2-fluorobenzyloxy)-5-fluoropyridin-2-yl)-2-fluorobenzyl)-1-(oxetan-2-ylmethyl)-1H-benzo[d]imidazole-6-carboxylic acid], the “β-arrestin internalization Bmax (POC)” value in assay [3] stood at 29.2 POC. Also, in assay [2], the EC50 was < 15 nM. The Emax in assay [4] stood at 44.6%.

For `O=C(O)c1ccc2nc(Cc3ccc(-c4ccc(F)c(OCc5ccc(Cl)cc5F)c4)c(F)c3)n(C[C@@H]3CCO3)c2c1` [Compound 78, (S)-2-((3′-((4-chloro-2-fluorobenzyl)oxy)-2,4′-difluoro-[1,1′-biphenyl]-4-yl)methyl)-1-(oxetan-2-ylmethyl)-1H-benzo[d]imidazole-6-carboxylic acid], the “β-arrestin internalization Bmax (POC)” value in assay [3] amounted to 7.49 POC. Moreover, the EC50 in assay [2] was < 15 nM. Moreover, in assay [4], the Emax was 22.7%.

As to `O=C(O)c1ccc2nc(Cc3ccc(-c4ccc(F)c(OCc5ccc(Cl)cc5F)n4)c(F)c3)n(C[C@@H]3CCO3)c2c1` [Compound 83, (S)-2-(4-(6-((4-chloro-2-fluorobenzyl)oxy)-5-fluoropyridin-2-yl)-3-fluorobenzyl)-1-(oxetan-2-ylmethyl)-1H-benzo[d]imidazole-6-carboxylic acid], the “β-arrestin internalization Bmax (POC)” value in assay [3] is 27.8 POC. Moreover, the EC50 in assay [2] was < 15 nM. Moreover, in assay [4], the Emax was found to be 44.6%.

Turning to `O=C(O)c1ccc2nc(Cc3ccc(-c4cccc(OCc5ccc(Cl)cc5F)c4)c(F)c3)n(C[C@@H]3CCO3)c2c1` [Compound 76, (S)-2-((3′-((4-chloro-2-fluorobenzyl)oxy)-2-fluoro-[1,1′-biphenyl]-4-yl)methyl)-1-(oxetan-2-ylmethyl)-1H-benzo[d]imidazole-6-carboxylic acid], the “β-arrestin internalization Bmax (POC)” value in assay [3] was determined as 21.6 POC. For the same compound, the EC50 in assay [2] is < 15 nM. Also, the Emax in assay [4] was determined as 25.1%.

Regarding `N#Cc1ccc(COc2cccc(-c3ccc(Cc4nc5ccc(C(=O)O)c(F)c5n4C[C@@H]4CCO4)cc3F)n2)c(F)c1` [Compound 307, (S)-2-(4-(6-((4-cyano-2-fluorobenzyl)oxy)pyridin-2-yl)-3-fluorobenzyl)-7-fluoro-1-(oxetan-2-ylmethyl)-1H-benzo[d]imidazole-6-carboxylic acid], the “β-arrestin internalization Bmax (POC)” value in assay [3] is on record as 33.8 ± 2.73 POC. In assay [2], the EC50 is < 15 nM. The Emax in assay [4] is 46.8 ± 7.21%.

Take `O=C(O)c1ccc2nc(Cc3ccc(-c4ccc(F)c(OCc5ccc(Cl)cc5F)c4)cc3F)n(C[C@@H]3CCO3)c2c1` [Compound 85]: the “β-arrestin internalization Bmax (POC)” value in assay [3] is recorded as 29.5 POC. The EC50 in assay [2] was < 15 nM. Besides, the Emax in assay [4] was 37%.

As to `O=C(O)c1ccc2nc(Cc3ccc(-c4ncc(F)c(OCc5ccc(Cl)cc5F)n4)cc3F)n(C[C@@H]3CCO3)c2c1` [Compound 90, (S)-2-(4-(4-((4-chloro-2-fluorobenzyl)oxy)-5-fluoropyrimidin-2-yl)-2-fluorobenzyl)-1-(oxetan-2-ylmethyl)-1H-benzo[d]imidazole-6-carboxylic acid], in assay [3], the “β-arrestin internalization Bmax (POC)” value worked out at 21.6 POC. Besides, the EC50 in assay [2] is < 15 nM. In assay [4], the Emax came out at 29.5 ± 3.21%.

As for `O=C(O)c1ccc2nc(Cc3ccc(-c4cccc(OCc5ccc(F)cc5F)n4)c(F)c3)n(C[C@@H]3CCO3)c2n1` [Compound 290, (S)-2-(4-(6-((2,4-difluorobenzyl)oxy)pyridin-2-yl)-3-fluorobenzyl)-3-(oxetan-2-ylmethyl)-3H-imidazo[4,5-b]pyridine-5-carboxylic acid], the “β-arrestin internalization Bmax (POC)” value in assay [3] was 21.6 ± 3.52 POC. For the same compound, in assay [2], the EC50 was < 15 nM. Moreover, the Emax in assay [4] is 39.9 ± 4.4%.

With `O=C(O)c1ccc2nc(Cc3ccc(-c4cccc(OCc5ccc(Cl)cc5F)n4)cn3)n(C[C@@H]3CCO3)c2c1` [Compound 101, (S)-2-((6-((4-chloro-2-fluorobenzyl)oxy)-[2,3′-bipyridin]-6′-yl)methyl)-1-(oxetan-2-ylmethyl)-1H-benzo[d]imidazole-6-carboxylicacid], the “β-arrestin internalization Bmax (POC)” value in assay [3] was 3.08 POC. Moreover, the EC50 in assay [2] is > 1000 nM. For the same compound, the Emax in assay [4] turned out to be 1.05%.

As for `O=C(O)c1ccc2nc(Cc3ccc(-c4cccc(OCc5ccc(Cl)cc5F)n4)cc3)n(C[C@@H]3CCO3)c2c1` [Compound 94, (S)-2-(4-(6-((4-chloro-2-fluorobenzyl)oxy)pyridin-2-yl)benzyl)-1-(oxetan-2-ylmethyl)-1H-benzo[d]imidazole-6-carboxylic acid], the “β-arrestin internalization Bmax (POC)” value in assay [3] turned out to be 27.3 ± 7.75 POC. Besides, the EC50 in assay [2] was < 15 nM. The “β-arrestin recruitment Bmax (%)” value in assay [4] (partial maximum relative effect at the highest concentration tested (top 10 μM), relative to Bmax of GLP-1 (7-37), PathHunter CHO-K1 GLP1R β-Arrestin cells) stood at 33.3%.

The EC50 is the midpoint of the concentration-response curve.
